Patent US20260176320A1, “MODULATORS OF G-PROTEIN COUPLED RECEPTORS” (priority 2018, published 2026)
Read-outs that look alike come from different tables or passages of the source.

Legend:
Assay type in all cases: cell-based
GLP-1R [1] = target: T1, GLP-1R (Homo sapiens, UniProt P43220); experiment: PathHunter β-arrestin assay
Outline: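 Following a 90 min agonist exposure at 37 °C in 0.2% BSA medium, β-arrestin coupling was detected by chemiluminescence after 3 h at room temperature.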

GIP-R = target: T2, GIP-R (Homo sapiens, UniProt P48546); experiment: HitHunter cAMP assay (GIP-R); conditions: cAMP; for Emax: read-out: (Emax) GIP-R
T2 sequence (P48546 22-466): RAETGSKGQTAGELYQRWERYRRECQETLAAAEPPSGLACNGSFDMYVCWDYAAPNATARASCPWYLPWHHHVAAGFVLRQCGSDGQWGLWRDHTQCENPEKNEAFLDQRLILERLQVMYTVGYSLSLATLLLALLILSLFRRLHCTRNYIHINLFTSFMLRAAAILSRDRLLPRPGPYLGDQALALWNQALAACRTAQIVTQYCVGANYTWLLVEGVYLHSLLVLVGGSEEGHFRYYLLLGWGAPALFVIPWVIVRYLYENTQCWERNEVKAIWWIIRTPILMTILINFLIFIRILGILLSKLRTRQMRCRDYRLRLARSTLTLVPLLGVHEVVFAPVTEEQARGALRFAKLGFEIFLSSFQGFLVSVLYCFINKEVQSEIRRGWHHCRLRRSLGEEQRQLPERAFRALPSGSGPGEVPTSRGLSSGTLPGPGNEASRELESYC
Outline: (§1)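 Duplicate 22-point, 2-fold agonist titrations applied to receptor-expressing suspension cells in IBMX-containing HBSS; 30 min RT stimulation. Read: luminescent cAMP immunocompetition after O/N dark incubation.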

GLP-1R [2] = target: T1, GLP-1R; experiment: HitHunter cAMP assay (GLP-1R); conditions: cAMP; for Emax: read-out: (Emax) GLP-1R
Outline: as §1

[3] = PathHunter β-arrestin assay, read-out: β-arrestin activity EC50
[4] = Table 3, read-out: EC50 GIP-R/nM
[5] = Table 3A, read-out: EC50 GIP-R/nM
[6] = read-out: (Emax) GIP-R at 1 μM, Table 3
[7] = Table 3, read-out: EC50 GLP-1R/nM
[8] = Table 3A, read-out: EC50 GLP-1R/nM

T1 sequence (P43220 24-463): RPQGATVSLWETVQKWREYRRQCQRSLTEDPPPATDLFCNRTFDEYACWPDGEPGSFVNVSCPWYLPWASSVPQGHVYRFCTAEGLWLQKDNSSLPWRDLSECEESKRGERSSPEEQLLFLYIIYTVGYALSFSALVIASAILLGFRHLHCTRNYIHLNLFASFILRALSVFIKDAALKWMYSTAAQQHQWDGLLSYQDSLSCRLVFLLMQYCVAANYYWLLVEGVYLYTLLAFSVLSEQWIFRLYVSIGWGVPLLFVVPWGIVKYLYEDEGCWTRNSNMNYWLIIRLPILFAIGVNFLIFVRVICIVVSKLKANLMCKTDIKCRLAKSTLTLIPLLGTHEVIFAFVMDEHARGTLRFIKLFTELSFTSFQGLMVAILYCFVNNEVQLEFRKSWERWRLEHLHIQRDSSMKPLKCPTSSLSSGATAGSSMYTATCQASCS

Row | Compound | EC50 (GLP-1R [1]) [nM] | EC50 (GIP-R; EC50 GIP-R/nM, Table 3) [nM] | EC50 (GIP-R; EC50 GIP-R/nM, Table 3A) [nM] | Emax (GIP-R; Table 3) [%] | Emax (GIP-R; Table 3A) [%] | EC50 (GLP-1R [2]; EC50 GLP-1R/nM, Table 3) [nM] | EC50 (GLP-1R [2]; EC50 GLP-1R/nM, Table 3A) [nM] | Emax (GLP-1R [2]; Table 3) [%] | Emax (GLP-1R [2]; Table 3A) [%] | EC50 (GLP-1R [1]; [3]) [nM] | EC50 (GIP-R; [4]) [nM] | EC50 (GIP-R; [5]) [nM] | Emax at 1 µM (GIP-R; [6]) [%] | Emax at 1 µM (GIP-R; read-out: (Emax) GIP-R at 1 μM, Table 3A) [%] | EC50 (GLP-1R [2]; [7]) [nM] | EC50 (GLP-1R [2]; [8]) [nM]
1 | CC[C@H](C)[C@H](NC(=O)[C@H](CO)NC(=O)[C@H](Cc1ccc(O)cc1)NC(=O)[C@H](CC(=O)O)NC(=O)[C@H](CO)NC(=O)[C@@H](NC(=O)[C@H](Cc1ccccc1)NC(=O)[C@@H](NC(=O)CNC(=O)[C@H](CCC(=O)O)NC(=O)CCCCC(=O)NCCN1C(=O)c2ccccc2C1=O)[C@@H](C)O)[C@@H](C)O)C(=O)N[C@@H](Cc1ccc(O)cc1)C(=O)N[C@@H](CC(C)C)C(=O)N[C@@H](CC(=O)O)C(=O)N[C@@H](CCCCN)C(=O)N[C@@H](CCC(N)=O)C(=O)N[C@@H](C)C(=O)N[C@@H](C)C(=O)NC(C)(C)C(=O)N[C@@H](CCC(=O)O)C(=O)N[C@@H](Cc1ccccc1)C(=O)N[C@H](C(=O)N[C@@H](CC(N)=O)C(=O)N[C@@H](Cc1c[nH]c2ccccc12)C(=O)N[C@@H](CC(C)C)C(=O)N[C@@H](CC(C)C)C(=O)N[C@@H](C)C(=O)NCC(=O)NCC(=O)N1CCC[C@H]1C(=O)N[C@@H](CO)C(=O)N[C@@H](CO)C(=O)NCC(=O)N[C@@H](C)C(=O)N1CCC[C@H]1C(=O)N1CCC[C@H]1C(=O)N1CCC[C@H]1C(=O)N[C@@H](CO)C(=O)N[C@@H](CCCCN)C(N)=O)C(C)C [Compound 181] | > 1000 | 1 to 10 | 1 to 10 | 102 | 102 | 10 to 100 | 10 to 100 | 103 | 103 | – | – | – | – | – | – | –
2 | CC[C@H](C)[C@H](NC(=O)[C@H](CO)NC(=O)[C@H](Cc1ccc(O)cc1)NC(=O)[C@H](CC(=O)O)NC(=O)[C@H](CO)NC(=O)[C@@H](NC(=O)[C@H](Cc1ccccc1)NC(=O)[C@@H](NC(=O)CNC(=O)[C@H](CCC(=O)O)NC(=O)[C@H]1CC[C@@H](C(=O)NCCN2C(=O)CSC2=O)CC1)[C@@H](C)O)[C@@H](C)O)C(=O)N[C@@H](Cc1ccc(O)cc1)C(=O)N[C@@H](CC(C)C)C(=O)N[C@@H](CC(=O)O)C(=O)N[C@@H](CCCCN)C(=O)N[C@@H](CCC(N)=O)C(=O)N[C@@H](C)C(=O)N[C@@H](C)C(=O)NC(C)(C)C(=O)N[C@@H](CCC(=O)O)C(=O)N[C@@H](Cc1ccccc1)C(=O)N[C@H](C(=O)N[C@@H](CC(N)=O)C(=O)N[C@@H](Cc1c[nH]c2ccccc12)C(=O)N[C@@H](CC(C)C)C(=O)N[C@@H](CC(C)C)C(=O)N[C@@H](C)C(=O)NCC(=O)NCC(=O)N1CCC[C@H]1C(=O)N[C@@H](CO)C(=O)N[C@@H](CO)C(=O)NCC(=O)N[C@@H](C)C(=O)N1CCC[C@H]1C(=O)N1CCC[C@H]1C(=O)N1CCC[C@H]1C(=O)N[C@@H](CO)C(=O)N[C@@H](CCCCN)C(N)=O)C(C)C [Compound 182] | – | – | – | – | – | – | – | 96 | 96 | > 1000 | 100 to 1000 | 100 to 1000 | 12 | 12 | 0.1 to 1 | 0.1 to 1
3 | CC[C@H](C)[C@H](NC(=O)[C@H](CO)NC(=O)[C@H](Cc1ccc(O)cc1)NC(=O)[C@H](CC(=O)O)NC(=O)[C@H](CO)NC(=O)[C@@H](NC(=O)[C@H](Cc1ccccc1)NC(=O)[C@@H](NC(=O)CNC(=O)[C@H](CCC(=O)O)NC(=O)[C@H]1CC[C@H](C(=O)NCCN2C(=O)CSC2=O)CC1)[C@@H](C)O)[C@@H](C)O)C(=O)N[C@@H](Cc1ccc(O)cc1)C(=O)N[C@@H](CC(C)C)C(=O)N[C@@H](CC(=O)O)C(=O)N[C@@H](CCCCN)C(=O)N[C@@H](CCC(N)=O)C(=O)N[C@@H](C)C(=O)N[C@@H](C)C(=O)NC(C)(C)C(=O)N[C@@H](CCC(=O)O)C(=O)N[C@@H](Cc1ccccc1)C(=O)N[C@H](C(=O)N[C@@H](CC(N)=O)C(=O)N[C@@H](Cc1c[nH]c2ccccc12)C(=O)N[C@@H](CC(C)C)C(=O)N[C@@H](CC(C)C)C(=O)N[C@@H](C)C(=O)NCC(=O)NCC(=O)N1CCC[C@H]1C(=O)N[C@@H](CO)C(=O)N[C@@H](CO)C(=O)NCC(=O)N[C@@H](C)C(=O)N1CCC[C@H]1C(=O)N1CCC[C@H]1C(=O)N1CCC[C@H]1C(=O)N[C@@H](CO)C(=O)N[C@@H](CCCCN)C(N)=O)C(C)C [Compound 183] | – | – | – | – | – | – | – | 95 | 95 | > 1000 | > 1000 | > 1000 | 1.4 | – | 10 to 100 | 10 to 100
